The values below come from patent publication US10894054B2, “FXR agonist compositions for combination therapy” (Intercept Pharmaceuticals, Inc., priority 2015, dated 2021).

Structures are written as SMILES.

Experiment [1] relates to DIO-NASH mice. The experiment in a line: Oral glucose tolerance test (OGTT). The conditions noted are these: alone or combined, PO QD, DIO-NASH vehicle 1762 ± 45. The format is in vivo, male C57BL/6 mice. The method, then:
Blood samples were collected into 10 μL heparinized glass capillary tubes. The sample was immediately suspended in buffer (0.5 ml of glucose/lactate system solution (EKF-diagnostics, Germany) and analyzed for glucose on the test day using a BIOSEN c-Line glucose meter (EKF-diagnostics, Germany). For triglyceride and cholesterol content, 100 μl blood was collected into Lithium-Heparin tubes. Plasma was separated and samples were stored at 4° C. for one day prior to analysis.
In week 4 (LIRA and MET combinations) or week 6 (SIT combination) of treatment, an OGTT was performed in conscious free-moving animals. […] Animals were fasted for 4 h prior to test start (food removal from 6 AM to 10 AM). At t=0, mice received an oral bolus of glucose (2 g/kg) (200 mg/ml; Fresenius Kabi, Sweden) by oral gavage (10 ml/kg). Blood samples were collected from the tail vein (by snipping) and blood glucose was measured at time point 0, 15, 30, 60 and 120 minutes after the oral glucose administration. Mice were re-fed after the blood sampling and drug dosed as per usual.

Experiment [2] deals with HFD-induced rabbit model of MetS. The conditions noted are these: cited from earlier work.
Where [3] appears, read: high dose: OCA 30 mg/kg, MET 150 mg/kg.
Setting [4] is: low dose: OCA 10 mg/kg, MET 50 mg/kg.
[5] abbreviates: HFD rabbits, in vivo OCA dosing.

On to `CN(C)C(=N)N=C(N)N` [MET, metformin, reference compound], for which the “OGTT Blood Glucose AUC, Week 4” value was 1480 ± 53 mmol·min/L in experiment [1] (setting [3]) and 1698 ± 31 mmol·min/L in experiment [1] (setting [4]).

On to `CC[C@H]1[C@@H](O)[C@@H]2[C@H](CC[C@]3(C)[C@@H]([C@H](C)CCC(=O)O)CC[C@@H]23)[C@@]2(C)CC[C@@H](O)C[C@@H]12` [OCA, 3α,7α-dihydroxy-6α-ethyl-5β-cholan-24-oic acid], for which, in experiment [2] (HFD rabbits vs rabbits on a control diet, immunohistochemistry, Western blot, RT-PCR), the “adipocyte size, hypoxia, and expression of perilipin and GLUT4 (SLC2A4) in VAT” value is “normalizes”. Also, in experiment [2] (setting [5]), the “amount of visceral AT (VAT)” value is on record as “marked reduction”; the “expression of steatosis and inflammation markers” value is given as “normalizes”; the “insulin resistance and metabolic profile” value is “ameliorates insulin resistance and the metabolic profile”. In addition, the “OGTT Blood Glucose AUC, Week 4” value in experiment [1] (setting [3]) was found to be 1778 ± 88 mmol·min/L. The “OGTT Blood Glucose AUC, Week 4” value in experiment [1] (setting [4]) was determined as 1680 ± 71 mmol·min/L.
